Results taken from patent US9458102B2 (priority 2011, dated 2016).
Like-named read-outs stand apart in the source and are kept apart here.

Columns and labels:
[1] = target: heteromeric rod CNG channels consisting of CNGA1 and CNGB1 subunits (Bos taurus, UniProt Q00194+Q28181); test: biochemical; assay type: cell-based; conditions: for Kd: 2 mM cGMP
Experimental: Currents were elicited by a voltage step protocol from 0 to −50 to +50 mV (See FIG. 1) in the presence of 2 mM cGMP or 2 mM cGMP and compound (5 μM). Time scale is shown in the lower left-hand corner of the panel and FIG. 1, and the zero current level is indicated by the dotted line.
The solid line indicates the fit of the equation for block at a single binding site.
Time scale is shown in the lower left-hand corner of the panel and FIG. 1, and the zero current level is indicated by the dotted line. […] Solid line indicates the fit of the equation for block at a single binding site.
The effectiveness of retinal rod CNG channel current block by the disclosed compounds was tested in Xenopus oocyte preparations. Excised, inside-out patches pulled from oocytes expressed heteromeric rod CNG channels consisting of CNGA1 and CNGB1 subunits. […] CNG channel currents were elicited by a voltage step protocol to −50 and +50 mV (FIG. 1). The apparent KD value at each membrane potential was estimated first by determining I+B and I−B at steady state, where I+B is the current in the presence of blocker and I−B is current in the absence of blocker, for different blocker concentrations ([B]).
Ovaries were surgically removed from adult Xenopus laevis females (Xenopus Express; Brooksville, Fla.) anesthetized with ice-cold 0.1% tricaine and 0.1% NaHCO3 solution. Oocytes were chemically released from ovarian follicles in Ca^2+-free Barth's solution (88 mM NaCl, 1 mM KCl, 2.4 mM NaHCO3, 0.82 mM MgSO4, 7.5 mM Tris, 2.5 mM sodium pyruvate, 100 U/mL penicillin, and 100 μg/mL streptomycin, pH 7.4) containing 0.1 U/mL Liberase Blendzymes (Roche, Indianapolis, Ind.). Stages IV and V oocytes were visually sorted and stored in ND-96 (96 mM NaCl, 2 mM KCl, 1.8 mM CaCl2, 1 mM MgCl2, 5 mM HEPES, 2.5 mM sodium pyruvate, 100 U/mL penicillin, and 100 μg/mL streptomycin, pH 7.4) at 16° C. Oocytes were co-injected the following day with 33 ng of CNGA1 and 67 ng of CNGB1 cRNA […] synthesized from linearized pGEM-HE expression vectors containing the channel subunit cDNA sequence (Strassmaier T & Karpen J, J Med Chem 50, 4186-4194, (2007), incorporated by reference herein) using T7 mMESSAGE mMACHINE® (Ambion, Austin, Tex.). Injected oocytes were incubated at 18° C. the first day and 16° C. for the remaining days.
(§1) Recordings from inside-out excised patches were made 3-7 days after oocyte injection on an Axopatch 1D® amplifier (Axon Instruments, Foster City, Calif.). Briefly, oocyte vitelline membranes were removed in solution containing 200 mM K aspartate, 20 mM KCl, 1 mM MgCl2, 10 mM EGTA, 10 mM HEPES, pH 7.4. Oocytes were placed in a recording chamber in a solution containing 130 mM NaCl, 2 mM HEPES, 0.02 mM EDTA, 1 mM EGTA, pH 7.6, and borosilicate glass electrodes (1-3 MΩ) were filled with identical solution. Macroscopic currents were filtered at 1 kHz and sampled at 2 kHz using pCLAMP 8.0® software (Axon Instruments). Channels were either fully activated with 2 mM or partially activated with 50 and 100 μM cGMP. […] Glass syringes and Teflon tubing were used to minimize the binding of compounds to surfaces; concentrations passing through the perfusion system were verified by absorbance.

chymotrypsin = target: T1, chymotrypsin (Bos taurus, UniProt P00766); test: In vitro hydrolysis by chymotrypsin; assay type: in vitro ADME
T1 construct: purchased Worthington Biochemical Co
Experimental: All enzymatic assays were performed with 50 μM compound in 0.1M phosphate buffer, pH 7.4, at 37° C. with stirring, unless otherwise noted. Butyrylcholinesterase stock solutions from human serum (Sigma, St. Louis, Mo.) were prepared at 100 U/mL in 0.1 M phosphate buffer, pH 7.4, and stored at −20° C. until use. Hydrolysis was monitored on an 8452A diode array spectrophotometer (Hewlett-Packard). Product peak wavelength absorption was immediately monitored upon addition of compound. Absorbances for complete hydrolysis were determined when there were no further detectable changes. […] All hydrolysis assays were performed in triplicate, and final rate constants are expressed as the mean±SD of the three individually determined rate constants. […] Activity of chymotrypsin (bovine, Worthington Biochemical Co., 190 μg/mL) was verified with 90 μM 4-nitrophenyl acetate in 0.1 M HEPES solution, pH 6.5, at 37° C. with stirring. Hydrolysis product was monitored at 404 nm for 10 min. Activity of proteinase K (from Engyodontium album, Sigma, 165 μg/mL) was verified with 16.5 mg/mL bovine serum albumin in 0.1 M phosphate buffer, pH 7.4, at 37° C. Samples were taken at time point increments up to 2 hours when the reaction reached completion. Samples were analyzed with 12% SDS-PAGE, stained with 0.1% Coomassie Blue.

[2] = target: T2, Butyrylcholinesterase purified from human blood serum (Homo sapiens, UniProt P06276); test: In vitro hydrolysis by serum cholinesterase (butyrylcholinesterase); assay type: in vitro ADME; conditions: 50 μM compound, 0.1M phosphate buffer pH 7.4, 37° C.; mean±SD of triplicate
T2 construct: Butyrylcholinesterase purified from human blood serum; purchased Sigma; host or cells: purified from human blood serum
Experimental: Compound 1 is rapidly hydrolyzed by butyrylcholinesterase in the bloodstream. Butyrylcholinesterase purified from human blood serum was used to test the resistance of the disclosed compounds to hydrolysis.
All enzymatic assays were performed with 50 μM compound in 0.1M phosphate buffer, pH 7.4, at 37° C. with stirring, unless otherwise noted. Butyrylcholinesterase stock solutions from human serum (Sigma, St. Louis, Mo.) were prepared at 100 U/mL in 0.1 M phosphate buffer, pH 7.4, and stored at −20° C. until use. Hydrolysis was monitored on an 8452A diode array spectrophotometer (Hewlett-Packard). Product peak wavelength absorption was immediately monitored upon addition of compound. Absorbances for complete hydrolysis were determined when there were no further detectable changes. […] All hydrolysis assays were performed in triplicate, and final rate constants are expressed as the mean±SD of the three individually determined rate constants. In some experiments with compound 1, samples were taken at the beginning and end of the assay to verify the hydrolysis product and the completion of the reaction by HPLC. These samples were compared to compounds 1 and 3 on a C18 column eluted with 0.1% TFA in water/acetonitrile. Activity of chymotrypsin (bovine, Worthington Biochemical Co., 190 μg/mL) was verified with 90 μM 4-nitrophenyl acetate in 0.1 M HEPES solution, pH 6.5, at 37° C. with stirring. Hydrolysis product was monitored at 404 nm for 10 min. Activity of proteinase K (from Engyodontium album, Sigma, 165 μg/mL) was verified with 16.5 mg/mL bovine serum albumin in 0.1 M phosphate buffer, pH 7.4, at 37° C. Samples were taken at time point increments up to 2 hours when the reaction reached completion. Samples were analyzed with 12% SDS-PAGE, stained with 0.1% Coomassie Blue.

[3] = tested on: heteromeric rod CNG channels consisting of CNGA1 and CNGB1 subunits; test: CNG channel block at subsaturating cGMP (state dependence of block); assay type: cell-based; conditions: subsaturating cGMP (50 or 100 μM), +50 mV, normalized to KD at 2 mM cGMP
Description: KD values at saturating cGMP were corrected for ion accumulation. Solid lines indicate simulations for exclusive closed channel blockers, using KD/KDsat=(1−Fsat)/(1−FsatI/Imax), where Fsat is the estimated fraction of open heteromeric rod channels in saturating cGMP assuming Fsat=0.3 (a), 0.56 (b), or 0.78 (c). The dotted line is a simulation for a blocker with no preference for state, or KD/KDsat=1. The dashed line is a simulation for an exclusive open channel blocker, using KD/KDsat=(I/Imax)^−1.
The solid lines in FIG. 4 marked a, b, and c represent the expected relationship between KD and the fraction of closed channels for an exclusive closed channel blocker. Each of a, b, and c uses one estimate for the probability of closed heteromeric retinal rod channels at saturating cGMP. The simulations are described in the following references: Matthews G et al, J Physiol 403, 389-405 (1988); Taylor W R & Baylor D A, J Physiol 483 567-582 (1995); and Bucossi G et al, Biophys J 72, 1165-1181 (1997), all of which are incorporated by reference herein. The dotted line represents a simulation of a blocker with no preference as to conformational of the channel. The dashed line represents a simulation for an exclusive open channel blocker.
as §1, with “absorbance. Current traces were digitally filtered at 300 Hz (Gaussian) and averaged using Clampfit 8.2® software. Currents in the absence of cGMP were subtracted from all currents analyzed. KD values were determined and expressed as the mean±SD.” for “absorbance.”

[4] = Table 2 (butyl series), +50 mV, read-out: KD(+50)
[5] = Table 2 (butyl series), −50 mV, read-out: KD(−50)
[6] = octyl series table, +50 mV, read-out: KD(+50)
[7] = octyl series table, −50 mV, read-out: KD(−50)

Chain of heteromeric rod CNG channels consisting of CNGA1 and CNGB1 subunits (Bos taurus, UniProt Q00194+Q28181) (Q00194 whole entry): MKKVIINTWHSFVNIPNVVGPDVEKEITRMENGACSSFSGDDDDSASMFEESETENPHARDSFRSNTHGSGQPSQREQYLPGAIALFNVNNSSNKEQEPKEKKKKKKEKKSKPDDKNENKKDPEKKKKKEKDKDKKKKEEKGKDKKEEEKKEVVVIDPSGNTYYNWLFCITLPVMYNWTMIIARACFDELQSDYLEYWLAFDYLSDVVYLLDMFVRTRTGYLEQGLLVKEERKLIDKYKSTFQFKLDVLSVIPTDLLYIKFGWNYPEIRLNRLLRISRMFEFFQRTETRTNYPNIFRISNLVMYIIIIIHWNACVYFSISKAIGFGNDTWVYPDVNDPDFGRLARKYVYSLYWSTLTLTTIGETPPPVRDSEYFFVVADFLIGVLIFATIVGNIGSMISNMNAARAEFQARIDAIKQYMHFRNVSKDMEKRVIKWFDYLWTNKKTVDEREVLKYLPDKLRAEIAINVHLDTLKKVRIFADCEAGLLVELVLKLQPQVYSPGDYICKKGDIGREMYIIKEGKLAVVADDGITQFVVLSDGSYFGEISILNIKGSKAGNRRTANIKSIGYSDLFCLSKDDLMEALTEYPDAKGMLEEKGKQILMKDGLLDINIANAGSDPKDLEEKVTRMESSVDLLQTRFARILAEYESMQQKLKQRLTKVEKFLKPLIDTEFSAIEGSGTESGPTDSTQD
Chain of heteromeric rod CNG channels consisting of CNGA1 and CNGB1 subunits (Bos taurus, UniProt Q00194+Q28181) (Q28181 whole entry): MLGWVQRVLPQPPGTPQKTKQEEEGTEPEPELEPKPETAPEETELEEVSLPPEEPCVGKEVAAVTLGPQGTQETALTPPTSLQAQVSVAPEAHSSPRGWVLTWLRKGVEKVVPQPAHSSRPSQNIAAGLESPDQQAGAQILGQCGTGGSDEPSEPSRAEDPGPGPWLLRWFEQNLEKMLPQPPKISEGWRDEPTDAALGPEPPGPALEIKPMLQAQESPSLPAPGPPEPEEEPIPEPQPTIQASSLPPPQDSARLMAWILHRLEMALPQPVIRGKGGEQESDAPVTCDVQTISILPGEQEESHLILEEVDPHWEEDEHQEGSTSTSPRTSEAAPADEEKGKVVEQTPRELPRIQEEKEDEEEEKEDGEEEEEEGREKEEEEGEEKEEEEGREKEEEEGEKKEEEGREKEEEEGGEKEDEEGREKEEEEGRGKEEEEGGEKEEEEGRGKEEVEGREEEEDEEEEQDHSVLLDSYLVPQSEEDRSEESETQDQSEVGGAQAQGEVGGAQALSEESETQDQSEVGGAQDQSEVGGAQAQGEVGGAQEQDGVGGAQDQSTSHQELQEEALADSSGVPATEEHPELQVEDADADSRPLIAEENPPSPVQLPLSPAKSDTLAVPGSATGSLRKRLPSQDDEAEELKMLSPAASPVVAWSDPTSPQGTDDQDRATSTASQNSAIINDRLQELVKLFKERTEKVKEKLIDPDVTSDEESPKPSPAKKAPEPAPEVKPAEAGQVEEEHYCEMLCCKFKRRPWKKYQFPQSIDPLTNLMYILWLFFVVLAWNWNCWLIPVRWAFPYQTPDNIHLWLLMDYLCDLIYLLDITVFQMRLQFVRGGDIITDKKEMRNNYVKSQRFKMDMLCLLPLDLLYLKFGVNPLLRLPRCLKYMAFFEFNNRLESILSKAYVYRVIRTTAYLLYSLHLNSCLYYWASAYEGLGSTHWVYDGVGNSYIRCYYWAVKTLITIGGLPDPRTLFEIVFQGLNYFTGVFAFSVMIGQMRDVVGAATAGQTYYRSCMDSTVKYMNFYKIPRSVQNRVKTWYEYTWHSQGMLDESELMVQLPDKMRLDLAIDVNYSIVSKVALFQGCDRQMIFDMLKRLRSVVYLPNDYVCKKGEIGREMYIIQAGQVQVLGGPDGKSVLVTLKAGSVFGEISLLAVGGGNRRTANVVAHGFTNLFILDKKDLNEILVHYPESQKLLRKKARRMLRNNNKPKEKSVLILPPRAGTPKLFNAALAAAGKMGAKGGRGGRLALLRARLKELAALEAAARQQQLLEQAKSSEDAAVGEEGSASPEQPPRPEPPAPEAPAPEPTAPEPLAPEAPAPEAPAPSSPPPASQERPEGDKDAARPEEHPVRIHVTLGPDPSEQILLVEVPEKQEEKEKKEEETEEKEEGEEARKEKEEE
T2 sequence (P06276 29-602): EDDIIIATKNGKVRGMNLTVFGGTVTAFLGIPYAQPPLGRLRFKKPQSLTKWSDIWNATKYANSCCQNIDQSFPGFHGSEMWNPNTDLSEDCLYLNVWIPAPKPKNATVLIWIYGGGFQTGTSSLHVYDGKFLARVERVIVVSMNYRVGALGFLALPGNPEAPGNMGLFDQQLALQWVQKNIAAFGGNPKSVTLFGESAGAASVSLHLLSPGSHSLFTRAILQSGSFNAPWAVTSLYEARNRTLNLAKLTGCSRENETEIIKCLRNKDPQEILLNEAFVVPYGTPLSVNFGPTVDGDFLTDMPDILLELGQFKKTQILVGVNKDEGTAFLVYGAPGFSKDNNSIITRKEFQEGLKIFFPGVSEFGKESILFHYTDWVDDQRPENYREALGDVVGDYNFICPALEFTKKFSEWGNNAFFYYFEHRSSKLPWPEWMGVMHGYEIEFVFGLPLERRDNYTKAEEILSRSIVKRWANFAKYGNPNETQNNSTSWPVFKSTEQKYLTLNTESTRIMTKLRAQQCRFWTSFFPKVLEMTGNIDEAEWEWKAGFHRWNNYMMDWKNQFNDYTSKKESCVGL

Row | Structure (SMILES) | Kd [1, 6] | Kd [1, 7] | further results
1 | COc1ccc([C@H]2Sc3ccccc3N(CCN(C)C)C(=O)[C@H]2OC(C)=O)cc1 (relative stereo) [l-cis-diltiazem, reference compound] |  |  | block of 2 mM cGMP-induced currents [1]: 74.2±5.8%
2 | CC(=O)Oc1ccc([N+](=O)[O-])cc1 [4-nitrophenyl acetate, reference compound] |  |  | hydrolysis products with chymotrypsin (chymotrypsin): detected
3 | CCCCNc1ccc(C(=O)OCCN(C)C)cc1 [Compound 1, 2-(dimethylamino)ethyl 4-(butylamino)benzoate, reference compound] |  |  | Hydrolysis rate [2]: 132 ± 10 nmol/min/mg; state dependence of block (KD vs fraction of closed channels) [3]: better fit the results expected of a closed channel blocker
4 | CCCCNc1ccc(C(=O)OCCN(C)C)cc1[N+](=O)[O-] [Compound 12a, 2-(dimethylamino)ethyl 4-(butylamino)-3-nitrobenzoate] |  |  | Kd [1, 4]: 5.5 ± 3.2 µM; Kd [1, 5]: 19.6 ± 14.4 µM
5 | CCCCNc1ccc(C(=O)OCCN(C)C)cc1OC [Compound 12b, 2-(dimethylamino)ethyl 4-(butylamino)-3-methoxybenzoate] |  |  | Kd [1, 4]: 4.3 ± 0.8 µM; Kd [1, 5]: 18.3 ± 4.4 µM
6 | CCCCNc1ccc(C(=O)OCCN(C)C)cc1C [Compound 12c, 2-(dimethylamino)ethyl 4-(butylamino)-3-methylbenzoate] |  |  | Kd [1, 4]: 7.8 ± 3.1 µM; Kd [1, 5]: 28.1 ± 13.4 µM
7 | CCCCNc1ccc(C(=O)OCCN(C)C)cc1Cl [Compound 12d, 2-(dimethylamino)ethyl 4-(butylamino)-3-chlorobenzoate] |  |  | improvement of affinity / blocking potency compared to compound 1 (tetracaine) [1]: 1.6 fold; Kd [1, 4]: 3 ± 1 µM; Kd [1, 5]: 12.8 ± 4.1 µM
8 | CCCCCCCCNc1ccc(C(=O)OCCN(C)C)cc1[N+](=O)[O-] [Compound 14a, 2-(dimethylamino)ethyl 4-(octylamino)-3-nitrobenzoate] | 8 ± 5.8 µM | 12.6 ± 7.3 µM | 
9 | CCCCCCCCNc1ccc(C(=O)OCCN(C)C)cc1OC [Compound 14b, 2-(dimethylamino)ethyl 4-(octylamino)-3-methoxybenzoate] | 1.25 ± 1.23 µM | 3 ± 3.4 µM | 
10 | CCCCCCCCNc1ccc(C(=O)OCCN(C)C)cc1C [Compound 14c, 2-(dimethylamino)ethyl 4-(octylamino)-3-methylbenzoate] | 0.5 ± 0.42 µM | 1.41 ± 0.84 µM | 
11 | CCCCCCCCNc1ccc(C(=O)OCCN(C)C)cc1Cl [Compound 14d, 2-(dimethylamino)ethyl 4-(octylamino)-3-chlorobenzoate] | 0.14 ± 0.04 µM | 0.38 ± 0.16 µM | improvement of affinity / blocking potency compared to compound 5 [1]: approximately six-fold improvement
12 | CCCCCCCCNc1ccc(C(=O)OCCN(C)C)cc1F [Compound 14e, 2-(dimethylamino)ethyl 4-(octylamino)-3-fluorobenzoate] | 0.2 ± 0.1 µM | 0.75 ± 0.86 µM | 
13 | CCCCCCCCNc1ccc(C(=O)OCCN(C)C)cc1Br [Compound 14f, 2-(dimethylamino)ethyl 4-(octylamino)-3-bromobenzoate] | 0.14 ± 0.03 µM | 0.24 ± 0.1 µM | 
14 | CCCCCCCCNc1ccc(C(=O)OCCN(C)C)c(Cl)c1 [Compound 14g, 2-(dimethylamino)ethyl 4-(octylamino)-2-chlorobenzoate] | 0.1 ± 0.09 µM | 0.22 ± 0.13 µM | 
